Test results taken from US20080090278A1, “METHOD FOR ENHANCING STABILITY OF A COMPOSITION COMPRISING SOLUBLE GLUCOSE DEHYDROGENASE (GDH)” (TOYO BOSEKI KABUSHIKI KAISHA, priority 2006, published 2008).

How the values were obtained:
Type in all cases: physicochemical
[1] = test system: recombinant FAD-GDH (rAT-FAD-GDH) derived from Aspergillus terreus; assay: Thermal stabilization effect of stabilizing agents on rAT-FAD-GDH in solution (Example 9); conditions: for Residual activity ratio (%) / GLD activity value (U/ml) 50° C., 15 min: Table 10, buffer 50 mM K-PB, stabilizer at each final concentration described in Table 1; for Residual activity ratio (%): 50° C., 15 min versus 4° C.; for thermal stabilization effect on FAD-GDH (in words): rAT-FAD-GDH, 50° C. for 15 minutes, Example 9
Procedure: (§1) The reaction reagent (3 mL) is preliminarily heated at 37° C. for 5 minutes. The GDH solution (0.1 mL) is added and gently mixed, subsequently the change of absorbance at 600 nm is recorded for 5 minutes using the spectrophotometer controlled to 37° C. using water as the control, and the change of absorbance per one minute (ΔODTEST) is calculated from the linear portion of the record. The solvent in which GDH will be dissolved in place of the blinded GDH solution is added to the reagent mixture, and the change of absorbance (ΔODBLANK) per one minute is measured. The GDH activity is calculated from these values according to the following formula. One unit (U) in the GDH activity is defined as the amount of the enzyme which reduces […] DCPIP for one minute in the presence of 200 mM D-glucose.
Two tubes in which each stabilizing agent described in Table 1 had been added at each final concentration to 0.9 mL of this enzyme solution to make the total volume 1.0 mL were prepared.
(§2) In two tubes, one tube was stored at 4° C. and another tube was treated at 50° C. for 15 minutes. Then, the FAD-GDH activity in each tube was measured. The enzyme activity in the tube stored at 4° C. was made 100, and comparing with it, the activity value after being treated at 50° C. for 15 minutes was calculated as the residual activity ratio (%).

[2] = test system: recombinant FAD-GDH (rAO-FAD-GDH) derived from Aspergillus oryzae; assay: Thermal stabilization effect of stabilizing agents on rAO-FAD-GDH in solution (Examples 3-6); conditions: for thermal stabilization effect on FAD-GDH (in words): rAO-FAD-GDH, 50° C. for 15 minutes, Example 3; for Residual activity ratio (%) after treatment at 50° C., 15 min: stabilizer final concentration 1%, rAO-FAD-GDH about 2 U/mL, 50 mM potassium phosphate buffer pH 5.5, 0.1% Triton X-100, 4° C. sample = 100; for GDH Residual activity ratio (%) after treatment at 50° C., 15 min: final concentration BSA 2.5%, serine 10%, alone or combined
Procedure: Enhancement of the thermal stability referred to herein means increasing of a residual ratio (%) of the GDH enzyme kept after giving the treatment with heat at a certain temperature for a certain time period to the composition comprising the GDH enzyme. In the present invention, the activity in the sample stored at 4° C. which is nearly completely kept is made 100%, this is compared with the activity in the GDH solution after giving the treatment with heat at a certain-temperature for a certain time period, and the residual ratio of the enzyme is calculated.
In the method for measuring the activity described in the method for measuring the GDH enzyme activity described later, an activity value (a) of GDH in the solution stored at 4° C. and an activity value (b) of GDH after giving the treatment with heat at a certain temperature for a certain time period were measured, a relative value[(b)/(a)×100] when the activity value (a) was made 100 was calculated. This relative value was made the residual ratio (%). Comparing the presence with the absence of the added compound, when the residual ratio was increased by the addition of the compound, it was determined that the thermal stability was enhanced.
In the present invention, the activity of FAD-dependent GDH is measured as follows.
The reaction-reagent is made by mixing 15.6 mL of the PIPES buffer, 0.2 mL of the DCPIP solution and 4 mL of the D-glucose solution.
as §1, with “D-glucose. Activity (U/mL)=[−(ΔODTEST−ΔODBLANK)×3.0×dilution scale]/(16.3×0.1×1.0) In the above formula, 3.0 represents a liquid amount (mL) of the reaction reagent+the enzyme solution, 16.3 represents a millimolar molecular absorbance coefficient (cm^2/μmol) in the condition for measuring this enzyme, 0.1 represents the liquid amount of the enzyme solution (mL) and 1.0 represents a light path length (cm) of the cell.” for “D-glucose.”
The study was performed in accordance with the method for measuring the FAD-GDH activity in Test Example 1 described above.
First, 50 mL of an enzyme solution obtained by dissolving the recombinant FAD-GDH (rAO-FAD-GDH)-derived from Aspergillus oryzae obtained in Example 1 at about 2 U/mL in an enzyme dilution solution (50 mM potassium phosphate buffer, pH 5.5, 0.1% Triton X-100) was prepared. Two tubes in which each stabilizing agent described in Table 1 had been added at each final concentration to 0.9 mL of this enzyme solution to make the total volume 1.0 mL were prepared.
as §2, with “stored at […] and” for “stored at 4° C. and”
The method was in accordance with Example 3 described above.
The methods were in accordance with Example 3 above.

[3] = test system: recombinant FAD-GDH (rAO-FAD-GDH) derived from Aspergillus oryzae; assay: as above
[4] = test system: recombinant FAD-GDH preparation (rAO-FAD-GDH) derived from Aspergillus oryzae; assay: Storage stability of freeze-dried (powdered) rAO-FAD-GDH with stabilizing agents (Example 8); conditions: for storage stabilization effect on the powdered enzyme (in words): Example 8, Tables 7 and 8; for GDH activity Residual ratio (%): 70% humidity
Procedure: as §1, with “D-glucose. Activity (U/mL)=[−(ΔODTEST−ΔODBLANK)×3.0×dilution scale]/(16.3×0.1×1.0) In the above formula, 3.0 represents a liquid amount (mL) of the reaction reagent+the enzyme solution, 16.3 represents a millimolar molecular absorbance coefficient (cm^2/μmol) in the condition for measuring this enzyme, 0.1 represents the liquid amount of the enzyme solution (mL) and 1.0 represents a light path length (cm) of the cell.” for “D-glucose.”
The study was performed using the recombinant FAD-GDH preparation (rAO-FAD-GDH) derived from Aspergillus oryzae obtained in Example 1 in accordance with the method for measuring the FAD-GDH activity in Test Example 1 above. The amount of the protein which occupied in the FAD-GDH enzyme solution was measured, and 1 mL of the solution in which the stabilizing agent corresponding to 60% or 30% relative to this had been dissolved therein was prepared.
Several vials in which 0.2 mL of the enzyme solution containing each stabilizing agent had been correctly dispensed were prepared. As the control, the vials in which the stabilizing agent had not been added was prepared. The prepared vials were subjected to vacuum freeze-dry (FDR) to completely evaporate the water. Then, only two samples in which the same stabilizing agent had been added were subjected to the measurement of the activity. Meanwhile, the remaining vials were treated at 25° C. at a humidity of 70% for several hours, and then stored at 37° C. for one week. Subsequently, the residual activity was measured. The residual activity ratio (%) was calculated by making the average activity immediately after FDR 100% and measuring the average activity of the samples after storing at 37° C.

[5] = Table 4, each stabilizer at final concentration 1%, alone or in pairs

## NCC(=O)O [Glycine]
[1]
  Residual activity ratio (%): 3.3%
  GLD activity value (U/ml) 50° C., 15 min: 0.094 U/ml
  thermal stabilization effect on FAD-GDH (in words): high effect
[2]
  thermal stabilization effect on FAD-GDH (in words): high effect
  Residual activity ratio (%) after treatment at 50° C., 15 min: 26.4%
[3]; [5]
  GDH Residual activity ratio (%) after treatment at 50° C., 30 min: 4.84%

## O.O.OC[C@H]1O[C@H](O[C@H]2O[C@H](CO)[C@@H](O)[C@H](O)[C@H]2O)[C@H](O)[C@@H](O)[C@@H]1O [D-(+)-trehalosedihydrate]
[1]
  Residual activity ratio (%): 15.8%
  GLD activity value (U/ml) 50° C., 15 min: 0.431 U/ml
  thermal stabilization effect on FAD-GDH (in words): high effect
[2]
  thermal stabilization effect on FAD-GDH (in words): high effect
  Residual activity ratio (%) after treatment at 50° C., 15 min: 64.7%
[4]
  storage stabilization effect on the powdered enzyme (in words): enhance the stability
[4]; Table 8, stabilizer 60%
  GDH activity (U/vial) Immediately after pulverization: 401 U/vial
  GDH activity (U/vial) Immediately before pulverization: 397 U/vial
[4]; Table 8, stabilizer 60%, 25° C., 7 h, then 37° C. for 1 week
  GDH activity Residual ratio (%): 48.6%
[4]; Table 8, stabilizer 60%, after treatment at 70% humidity, 25° C., 7 h, then 37° C. for 1 week
  GDH activity (U/vial) At 37° C. for 1 week: 195 U/vial
[3]; [5]
  GDH Residual activity ratio (%) after treatment at 50° C., 30 min: 39.10%
[3]; final concentration 0.01%
  GDH Residual activity ratio (%) after treatment at 50° C., 30 min: 11.2%
[3]; final concentration 0.1%
  GDH Residual activity ratio (%) after treatment at 50° C., 30 min: 20.4%
[3]; final concentration 1%
  GDH Residual activity ratio (%) after treatment at 50° C., 30 min: 42.3%
[3]; final concentration of 0.01%, 50° C., 30 min
  thermal stabilization effect of trehalose (in words): the stabilization effect was exerted

## N[C@@H](CO)C(=O)O [L-serine]
[1]
  Residual activity ratio (%): 3.0%
  GLD activity value (U/ml) 50° C., 15 min: 0.078 U/ml
  thermal stabilization effect on FAD-GDH (in words): high effect
[2]; Table 3
  GDH Residual activity ratio (%) after treatment at 50° C., 15 min: 33%
[2]; Table 3 second column
  GDH Residual activity ratio (%) after treatment at 50° C., 15 min: 11.5%
[2]
  thermal stabilization effect on FAD-GDH (in words): high effect
  Residual activity ratio (%) after treatment at 50° C., 15 min: 27.0%
[4]
  storage stabilization effect on the powdered enzyme (in words): enhance the stability
[4]; Table 7, stabilizer 60% relative to FAD-GDH protein, vacuum freeze-dry
  GDH activity (kU/vial) Immediately after pulverization: 19.8 kU/vial
[4]; Table 7, stabilizer 60%, 25° C., 24 h, then 37° C. for 1 week, activity immediately after FDR = 100%
  GDH activity Residual ratio (%): 41.3%
[4]; Table 7, stabilizer 60%, after treatment at 70% humidity, 25° C., 24 h, then 37° C. for 1 week
  GDH activity (kU/vial) After 1 week at 37° C.: 8.2 kU/vial

## O=C[C@@H](O)[C@@H](O)[C@H](O)[C@H](O)CO [D-(+)-mannose]
[1]
  Residual activity ratio (%): 16.5%
  GLD activity value (U/ml) 50° C., 15 min: 0.448 U/ml
  thermal stabilization effect on FAD-GDH (in words): high effect
[2]
  thermal stabilization effect on FAD-GDH (in words): high effect
  Residual activity ratio (%) after treatment at 50° C., 15 min: 65.3%
[3]; [5]
  GDH Residual activity ratio (%) after treatment at 50° C., 30 min: 47.78%
